Reference: ChEMBL document CHEMBL4028827, “Discovery of indazole aldosterone synthase (CYP11B2) inhibitors as potential treatments for hypertension” (Bioorg Med Chem Lett, 2017)

Key:
[1] = biological target: T1, Steroid 17-alpha-hydroxylase/17,20 lyase (Homo sapiens, UniProt P05093); assay: Inhibition of human CYP17 expressed in African green monkey COS7 cells using 17-hydroxypregnenolone as substrate preincubated for 1 hr followed by substrate addition measured after 3 hrs by EIA; assay type: cell-based
T1 sequence (P05093 whole entry): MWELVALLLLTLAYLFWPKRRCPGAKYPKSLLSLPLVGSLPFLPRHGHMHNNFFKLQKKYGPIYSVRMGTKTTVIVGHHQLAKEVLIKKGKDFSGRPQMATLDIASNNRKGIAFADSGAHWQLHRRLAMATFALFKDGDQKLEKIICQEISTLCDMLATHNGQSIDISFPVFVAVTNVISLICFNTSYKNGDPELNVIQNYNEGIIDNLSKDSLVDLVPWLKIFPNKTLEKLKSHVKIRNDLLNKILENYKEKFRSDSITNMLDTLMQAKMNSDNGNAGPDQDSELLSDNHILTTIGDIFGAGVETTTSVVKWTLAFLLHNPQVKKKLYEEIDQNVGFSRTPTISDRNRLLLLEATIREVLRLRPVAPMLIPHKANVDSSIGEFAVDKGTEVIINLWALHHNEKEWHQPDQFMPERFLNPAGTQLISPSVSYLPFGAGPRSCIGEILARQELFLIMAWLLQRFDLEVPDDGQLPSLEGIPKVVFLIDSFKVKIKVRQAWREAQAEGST

Cytochrome P450 2C9 = Cytochrome P450 2C9 (Homo sapiens, UniProt P11712); assay: Inhibition of hepatic CYP2C9 (unknown origin); assay type: ADME
Sequence of Cytochrome P450 2C9 (P11712 whole entry): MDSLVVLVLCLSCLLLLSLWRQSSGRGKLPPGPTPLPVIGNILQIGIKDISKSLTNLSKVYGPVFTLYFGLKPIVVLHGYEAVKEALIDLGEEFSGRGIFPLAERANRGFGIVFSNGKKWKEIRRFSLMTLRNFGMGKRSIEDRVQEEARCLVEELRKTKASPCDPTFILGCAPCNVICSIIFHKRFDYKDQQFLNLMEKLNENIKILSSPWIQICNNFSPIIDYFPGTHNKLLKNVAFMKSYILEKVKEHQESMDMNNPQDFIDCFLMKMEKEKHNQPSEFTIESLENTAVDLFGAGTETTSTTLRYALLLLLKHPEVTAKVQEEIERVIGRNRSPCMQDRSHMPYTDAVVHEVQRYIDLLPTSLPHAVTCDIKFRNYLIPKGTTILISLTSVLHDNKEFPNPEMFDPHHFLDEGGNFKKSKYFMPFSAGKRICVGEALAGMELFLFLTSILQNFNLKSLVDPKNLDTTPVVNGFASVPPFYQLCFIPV

[2] = biological target: T2, Cytochrome P450 11B2, mitochondrial (Homo sapiens, UniProt P19099); assay: Inhibition of human CYP11B2-CLE9 expressed in Chinese hamster V79 cells using 11-deoxycorticosterone as substrate preincubated for 1 hr followed by substrate addition measured for 3 hrs by HTRF assay; assay type: cell-based
T2 sequence (P19099 whole entry): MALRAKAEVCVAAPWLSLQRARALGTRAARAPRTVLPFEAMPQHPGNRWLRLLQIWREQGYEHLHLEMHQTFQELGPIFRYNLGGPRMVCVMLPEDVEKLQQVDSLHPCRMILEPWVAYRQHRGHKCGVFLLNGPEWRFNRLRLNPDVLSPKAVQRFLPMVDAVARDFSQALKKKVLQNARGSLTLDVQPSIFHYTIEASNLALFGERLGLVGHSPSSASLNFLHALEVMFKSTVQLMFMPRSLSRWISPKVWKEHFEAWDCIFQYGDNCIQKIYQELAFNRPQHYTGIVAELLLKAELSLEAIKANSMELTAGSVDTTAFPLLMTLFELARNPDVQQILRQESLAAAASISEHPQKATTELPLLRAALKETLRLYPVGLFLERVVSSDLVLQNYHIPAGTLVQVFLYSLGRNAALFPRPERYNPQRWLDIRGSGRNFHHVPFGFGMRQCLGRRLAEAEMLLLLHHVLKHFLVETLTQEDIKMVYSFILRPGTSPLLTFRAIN

Steroid 21-hydroxylase = biological target: T3, Steroid 21-hydroxylase (Homo sapiens, UniProt P08686); assay: Inhibition of human CYP21 expressed in African green monkey COS7 cells using […] as substrate preincubated for 1 hr followed by substrate addition measured for 3 hrs by HTRF assay; assay type: cell-based
T3 sequence (P08686 whole entry): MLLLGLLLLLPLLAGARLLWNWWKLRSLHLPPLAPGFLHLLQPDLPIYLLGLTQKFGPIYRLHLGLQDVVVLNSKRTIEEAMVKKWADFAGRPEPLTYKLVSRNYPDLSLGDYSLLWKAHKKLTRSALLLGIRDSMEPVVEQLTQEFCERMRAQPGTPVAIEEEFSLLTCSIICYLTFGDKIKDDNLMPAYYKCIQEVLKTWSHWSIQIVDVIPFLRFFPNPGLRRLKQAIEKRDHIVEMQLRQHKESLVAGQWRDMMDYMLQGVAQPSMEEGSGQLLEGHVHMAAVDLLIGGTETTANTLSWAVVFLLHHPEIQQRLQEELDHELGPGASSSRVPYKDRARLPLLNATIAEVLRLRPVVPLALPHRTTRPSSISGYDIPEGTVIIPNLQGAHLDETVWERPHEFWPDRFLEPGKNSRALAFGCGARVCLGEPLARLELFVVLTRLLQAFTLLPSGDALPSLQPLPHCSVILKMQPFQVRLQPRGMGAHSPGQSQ

Aromatase = biological target: T4, Aromatase (Homo sapiens, UniProt P11511); assay: Inhibition of CYP19 (unknown origin) using MFC as substrate and NADPH as cofactor preincubated for 10 mins with cofactor followed by substrate/enzyme addition measured after 30 mins
T4 sequence (P11511 whole entry): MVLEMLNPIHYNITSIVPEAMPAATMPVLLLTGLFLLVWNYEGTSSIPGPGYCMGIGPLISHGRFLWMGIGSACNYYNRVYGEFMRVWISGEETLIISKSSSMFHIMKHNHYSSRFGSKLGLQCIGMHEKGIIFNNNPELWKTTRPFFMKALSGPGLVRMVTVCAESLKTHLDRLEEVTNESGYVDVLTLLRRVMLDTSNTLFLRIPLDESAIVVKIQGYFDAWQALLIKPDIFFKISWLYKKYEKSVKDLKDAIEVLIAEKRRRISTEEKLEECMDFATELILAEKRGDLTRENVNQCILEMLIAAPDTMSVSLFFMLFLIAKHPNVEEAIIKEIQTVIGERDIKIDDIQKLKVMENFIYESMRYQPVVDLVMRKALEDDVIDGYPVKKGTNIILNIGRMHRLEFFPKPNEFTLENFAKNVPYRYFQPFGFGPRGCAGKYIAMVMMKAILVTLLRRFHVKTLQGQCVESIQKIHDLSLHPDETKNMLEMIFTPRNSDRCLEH

[3] = biological target: T5, Cytochrome P450 11B1, mitochondrial (Homo sapiens, UniProt P15538); assay: Inhibition of human CYP11B1-8C7 expressed in Chinese hamster V79 cells using 11-deoxycortisol as substrate preincubated for 1 hr followed by substrate addition measured for 3 hrs by HTRF assay; assay type: ADME, cell-based
T5 sequence (P15538 whole entry): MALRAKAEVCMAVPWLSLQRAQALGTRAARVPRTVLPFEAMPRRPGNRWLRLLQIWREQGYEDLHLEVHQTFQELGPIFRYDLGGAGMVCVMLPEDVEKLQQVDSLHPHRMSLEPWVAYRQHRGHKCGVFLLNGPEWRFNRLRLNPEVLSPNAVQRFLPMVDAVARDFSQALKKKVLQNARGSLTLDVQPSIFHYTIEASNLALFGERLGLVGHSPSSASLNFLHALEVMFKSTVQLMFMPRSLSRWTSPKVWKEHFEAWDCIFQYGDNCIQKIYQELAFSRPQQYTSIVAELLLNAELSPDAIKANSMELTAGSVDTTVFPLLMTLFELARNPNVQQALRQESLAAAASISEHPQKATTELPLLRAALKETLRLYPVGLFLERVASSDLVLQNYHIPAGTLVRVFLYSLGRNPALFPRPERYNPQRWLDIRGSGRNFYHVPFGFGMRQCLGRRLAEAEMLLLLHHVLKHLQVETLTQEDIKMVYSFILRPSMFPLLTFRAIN

Cytochrome P450 2D6 = Cytochrome P450 2D6 (Homo sapiens, UniProt P10635); assay: Inhibition of hepatic CYP2D6 (unknown origin); assay type: ADME
Sequence of Cytochrome P450 2D6 (P10635 whole entry): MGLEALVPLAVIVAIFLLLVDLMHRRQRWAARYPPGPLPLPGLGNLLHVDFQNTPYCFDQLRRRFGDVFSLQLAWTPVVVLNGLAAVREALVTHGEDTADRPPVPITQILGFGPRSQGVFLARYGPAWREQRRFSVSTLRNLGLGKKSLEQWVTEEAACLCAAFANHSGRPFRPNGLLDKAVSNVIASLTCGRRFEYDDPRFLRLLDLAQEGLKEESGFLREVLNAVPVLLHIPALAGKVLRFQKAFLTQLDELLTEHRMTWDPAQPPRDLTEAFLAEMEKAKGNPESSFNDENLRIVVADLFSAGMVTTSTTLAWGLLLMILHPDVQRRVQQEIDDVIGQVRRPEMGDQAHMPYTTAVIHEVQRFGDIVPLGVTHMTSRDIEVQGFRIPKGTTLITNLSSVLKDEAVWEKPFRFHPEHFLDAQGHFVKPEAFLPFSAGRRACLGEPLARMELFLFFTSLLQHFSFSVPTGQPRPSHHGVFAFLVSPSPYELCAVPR

[4] = Selectivity ratio of IC50 for human CYP11B1-8C7 expressed in Chinese hamster V79 cells to IC50 for human CYP11B2-CLE9 expressed in Chinese hamster V79 cells
Cytochrome P450 3A4 = Cytochrome P450 3A4 (Homo sapiens, UniProt P08684); assay: Inhibition of hepatic CYP3A4 (unknown origin); assay type: ADME
Sequence of Cytochrome P450 3A4 (P08684 whole entry): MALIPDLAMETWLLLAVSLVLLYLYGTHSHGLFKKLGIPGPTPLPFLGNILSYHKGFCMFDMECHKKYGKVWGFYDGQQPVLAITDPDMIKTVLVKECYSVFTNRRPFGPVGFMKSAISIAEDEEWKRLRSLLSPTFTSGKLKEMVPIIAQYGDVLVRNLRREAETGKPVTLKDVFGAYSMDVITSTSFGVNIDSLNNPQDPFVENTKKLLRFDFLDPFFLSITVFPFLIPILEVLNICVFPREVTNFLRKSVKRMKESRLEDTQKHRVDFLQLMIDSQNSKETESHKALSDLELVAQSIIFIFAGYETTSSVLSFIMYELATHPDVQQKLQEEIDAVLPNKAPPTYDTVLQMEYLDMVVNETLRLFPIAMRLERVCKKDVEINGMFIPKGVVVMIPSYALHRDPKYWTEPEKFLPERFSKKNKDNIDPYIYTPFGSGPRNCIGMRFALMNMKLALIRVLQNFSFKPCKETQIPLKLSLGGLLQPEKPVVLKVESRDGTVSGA

[5] = biological target: T6, Cytochrome P450 11B2, mitochondrial (Rattus norvegicus, UniProt P30099); assay: Inhibition of rat CYP11B2-1F4 expressed in Chinese hamster V79 cells using 11-deoxycorticosterone as substrate preincubated for 1 hr followed by substrate addition measured for 3 hrs by HTRF assay; assay type: cell-based
T6 sequence (P30099 whole entry): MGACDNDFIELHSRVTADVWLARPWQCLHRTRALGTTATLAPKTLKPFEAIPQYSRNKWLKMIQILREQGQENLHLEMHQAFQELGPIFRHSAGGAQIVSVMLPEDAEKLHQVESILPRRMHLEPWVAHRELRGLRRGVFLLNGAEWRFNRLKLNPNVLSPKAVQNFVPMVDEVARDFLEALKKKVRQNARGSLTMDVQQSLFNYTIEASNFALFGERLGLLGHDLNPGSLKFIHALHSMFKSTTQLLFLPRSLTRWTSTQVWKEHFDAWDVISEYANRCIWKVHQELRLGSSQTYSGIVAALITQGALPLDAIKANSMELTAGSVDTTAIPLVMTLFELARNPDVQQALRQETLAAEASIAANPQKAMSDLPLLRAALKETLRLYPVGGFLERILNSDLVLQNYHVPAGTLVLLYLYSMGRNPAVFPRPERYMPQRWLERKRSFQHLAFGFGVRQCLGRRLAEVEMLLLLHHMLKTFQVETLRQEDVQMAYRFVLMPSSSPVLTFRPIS

Structure (SMILES)	IC50 [1] [µM]	IC50 (Cytochrome P450 2C9) [µM]	IC50 [2] [µM]	IC50 (Steroid 21-hydroxylase) [µM]	IC50 (Aromatase) [µM]	IC50 [3] [µM]	IC50 (Cytochrome P450 2D6) [µM]	Ratio IC50 [4]	IC50 (Cytochrome P450 3A4) [µM]	IC50 [5] [µM]
Cc1nn(-c2cncc([C@](C)(O)C(F)(F)F)c2)c2ccccc12	> 10	11	0.014 to 0.0143	> 10	6.3	0.338 to 0.34	> 50	24	> 50	0.014
C[C@](O)(c1cncc(-n2nc(C(F)(F)F)c3ccccc32)c1)C(F)(F)F	> 10	7.2	0.077 to 0.0774	> 10	5.4	0.856 to 0.86	> 50	11	> 50	0.077
